Among the data in patent US20190144375A1, “NOVEL CARBOCYCLIC COMPOUNDS AS ROR GAMMA MODULATORS” (Glenmark Pharmaceuticals S.A., priority 2015, published 2019) are inhibition and IC50 values, retold here.

This test deals with T1, GST-tagged ROR gamma ligand binding domain (LBD) (Homo sapiens, UniProt P51449).
T1 construct: purchased Invitrogen
T1 sequence (P51449 269-508 limits assumed): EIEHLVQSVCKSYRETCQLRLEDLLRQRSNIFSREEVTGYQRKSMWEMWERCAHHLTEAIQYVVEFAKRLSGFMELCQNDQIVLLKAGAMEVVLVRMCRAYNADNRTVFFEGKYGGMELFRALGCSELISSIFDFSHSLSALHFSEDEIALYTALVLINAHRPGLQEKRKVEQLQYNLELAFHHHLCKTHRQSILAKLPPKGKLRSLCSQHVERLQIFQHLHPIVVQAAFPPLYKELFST
The experiment in a line: TR-FRET assay for ROR gamma (LanthaScreen, Fluorescein-D22 co-activator peptide recruitment). It is filed as biochemical. The following applies: for inhibition at 1 µM: 1 μM compound; for inhibition at 1 µM / inhibition at 10 µM: TR-FRET ratio 520/495; for inhibition at 10 µM: 10 μM compound; for IC50: dose response curve, class symbols. From the text:
The compounds described herein were screened for ROR gamma modulator activity using the TR-FRET assay (LanthaScreen™ available from Invitrogen of Carlsbad, Calif.) as described in JBC 2011, 286, 26: 22707-10; and Drug Metabolism and Disposition 2009, 37, 10: 2069-78.
The assay is based on the principle that binding of the agonist to the ROR gamma causes a conformational change around helix 12 in the ligand binding domain, resulting in higher affinity for the co-activator peptide. ROR gamma being constitutively active, the Fluorescein-D22 co-activator peptide used in the assay is recruited in the absence of a ligand. Binding of the co-activator peptide, causes an increase in the TR-FRET signal while binding of an antagonist decreases the recruitment of the co-activator peptide, causing a decrease in the TR-FRET signal compared to control with no compound. The assay was performed using a two-step procedure, pre-incubation step with the compound followed by the detection step on addition of the anti-GST tagged terbium (Tb) and fluorescein tagged fluorophores as the acceptor.
Test compounds or reference compounds such as T0901317 (Calbiochem) were dissolved in dimethylsulfoxide (DMSO) to prepare 10.0 mM stock solutions and diluted to the desired concentration. The final concentration of DMSO in the reaction was 4% (v/v). The assay mixture was prepared by mixing 10 nM of the GST-tagged ROR gamma ligand binding domain (LBD) in the assay buffer containing 25 mM HEPES, 100 mM NaCl, 5 mM DTT and 0.01% BSA with or without the desired concentration of the compound. The reaction was incubated at 22° C. for 1 hour. The pre-incubation step was terminated by addition of the detection mixture containing 300 nM Fluorescein-D22 co-activator peptide and 10 nM lantha screen Tb-anti GST antibody into the reaction mixture. After shaking for 5 minutes the reaction was further incubated for 1 hour at room temperature and read […] on an Infinite F500 reader as per the kit instructions (Invitrogen). The inhibition of test compound was calculated based on the TR-FRET ratio of 520/495. The activity was calculated as a percent of control reaction. IC50 values were calculated from dose response curve by nonlinear regression analysis using GraphPad Prism software.
Percentage inhibition at concentrations of 1.0 μM and 10.0 μM are given in the table along with IC50 (nM) details for selected examples.

What is called inhibition is how much of the control response was suppressed. Broadly, the IC50 is the concentration that inhibits the measured activity by half. Consider `Cc1cccc(Cl)c1N(C)C(=O)c1ccc(NC(=O)Cc2ccc(C(F)(F)C(C)O)cc2)cc1` (stereo not drawn) [Example 31], for which the inhibition at 1 µM is 79.1%, the inhibition at 10 µM came out at 86.6% and the IC50 was in the range of 0.05 to 0.1 µM.
On the same counts, the results for `Cc1cc(C)c(N(C)C(=O)c2ccc(NC(=O)Cc3ccc(C(F)(F)C(C)O)cc3)cc2)c(C)c1` (stereo not drawn) [Example 32] are 84.9%, 95% and 0.05 to 0.1 µM.
Taken in the same sequence, the figures for `Cc1cc(C)c(N(C)C(=O)c2ccc(NC(=O)Cc3ccc(C(F)(F)C(C)O)cc3)cc2)c(Cl)c1` (stereo not drawn) [Example 33] were 86.8%, 90.2% and less than 0.05 µM.
With `Cc1ccc(N(C)C(=O)c2ccc(NC(=O)Cc3ccc(C(F)(F)C(C)O)cc3)cc2)c(C2CC2)c1` (stereo not drawn) [Example 34], the inhibition at 1 µM came to 91.8%, the inhibition at 10 µM is 92.6% and the IC50 is less than 0.05 µM.
As for `Cc1cc(C)cc(N(C)C(=O)c2ccc(NC(=O)Cc3ccc(C(F)(F)[C@@H](C)O)cc3)cc2)c1` [Example 36], the inhibition at 1 µM was 89.7%, the inhibition at 10 µM turned out to be 94.5% and the IC50 is less than 0.05 µM.
Taken in the same sequence, the figures for `Cc1cc(N(C)C(=O)c2ccc(NC(=O)Cc3ccc(C(F)(F)C(C)O)cc3)cc2)c(F)cc1Cl` (stereo not drawn) [Example 37] were 93.9%, 96.3% and less than 0.05 µM.
On the same counts, the results for `CC(O)C(F)(F)c1ccc(CC(=O)Nc2ccc(C(=O)N(C)c3ccc(C4CC4)cc3Cl)cc2)cc1` (stereo not drawn) [Example 38] are 92.6%, 94.8% and less than 0.05 µM.
Taken in the same sequence, the figures for `Cc1ccc(C2CC2)cc1N(C)C(=O)c1ccc(NC(=O)Cc2ccc(C(F)(F)C(C)O)cc2)cc1` (stereo not drawn) [Example 39] were 84.1%, 92% and less than 0.05 µM.
With `CC(O)C(F)(F)c1ccc(CC(=O)Nc2ccc(C(=O)N(C)c3cc(C4CC4)ccc3Cl)cc2)cc1` (stereo not drawn) [Example 40], the inhibition at 1 µM stood at 90.8%, the inhibition at 10 µM stood at 94.3% and the IC50 was less than 0.05 µM.
